Read-outs that look alike come from different tables or passages of the source.
What was measured:
[1] = Mice acute toxicity assay, intravenous administration (Example 9); conditions: both sexes, Kunming, mouse, in vivo, Bliss algorithm
Experimental: The median lethal dose of (S)2-(4′-methyl-3′-nitrobenzoylamino)-3-phenylpropionic acid via intravenous administration was tested by mice acute toxicity assay.
1) Mice grouping, Kunming mice of clean grade, 10 weeks old, 30˜40 g body weight, 10 mice for each group, half male and half female.
2) 10 groups in total, concentration distance between groups was 0.88. Sterilized water was added to the mother liquid II for dosage form administrated by intravenous injection to formulate into the required concentration and 0.2 ml was intravenously injected for each mouse, following 14 days observation. The dosage of administration for each group and the death numbers were recorded as follows: […]

[2] = tested on: human breast cancer cell MDA-MB-231; experiment: Transwell invasion assay through Matrigel (Example 5); type: cell-based
Experimental: The inhibiting ability of (S)2-(4′-methyl-3′-nitrobenzoylamino)-3-phenylpropionic acid for the invasion of human breast cancer cell MDA-MB-231 was tested by Transwell invasion assay.
1) Gel placement into the Transwell chamber: Matrigel was melted under ice-bath of 4° C. overnight, and diluted with pre-cooled serum free DMEM medium at a ratio of 1:3. Transwell chamber was put in the 24-well plate, and 50 μL gel solution was added per chamber, stayed at 37° C. for 1 h, then 200 μL serum free DMEM medium was added and stayed for 15 min to make the gel reconstitute, and finally the medium was removed for stand-by;
2) MDA-MB-231 cells in logarithmic growth phase were plated in 6-well plate with the density of 1×10^6/3 mL, and after 12 h, the drug was added, with 100 μL per well. The final concentrations of (S)2-(4′-methyl-3′-nitrobenzoylamino)-3-phenylpropionic acid were 1, 2, and 4 μmol/L, respectively. The negative control was 100 μL sterilized water with 2% DMSO and the positive control was 1 μmol/L 4-methyl-3-nitrobenzoic acid. After 12 h, the medium was removed, followed by washing 3 times with PBS, and 3 ml medium without fetal bovine serum and 100 μL drug (concentration is as above) per well were added. […] The cell number was counted and the cells were seeded at the density of 2×10^5/200 μL into the Transwell chamber with the Matrigel. […]

Solubility = type: physicochemical; conditions: dry ethanol, methanol, chloroform, dimethylformamide, dimethylsulfoxide
MDA-MB-231 cells [3] = experiment: MTT assay, synergistic effect with Paclitaxel (Example 12); type: cell-based, human; conditions: 20 μM, 24 or 48 h
Experimental: Synergistic effects of (S)2-(4′-methyl-3′-nitrobenzoylamino)-3-phenylpropionic acid and Paclitaxel was tested by MTT assay.
1) The MDA-MB-231 cells in logarithmic growth phase were seeded in the 96-well plate at a density of 4×10^3/0.2 ml. After culturing for 12 h, 10 μl Paclitaxel solution was added, with the final concentration of 0, 0.001, 0.01, 0.1, 1, 10, 50, 100, 200 μM, then 10 μL (S)2-(4′-methyl-3′-nitrobenzoylamino)-3-phenylpropionic acid PBS solution was add to half of the wells for each group with the final concentration of 20 μM, followed by continuous culturing for 24 or 48 h.
2) 5 mg/mL MTT solution was prepared with sterilized PBS, filtered with 0.22 μm film, and diluted with medium to 1 mg/mL. After discarding the medium in the 96-well plate, 100 μL 1 mg/mL MTT working solution was added, followed by continuous culturing for 5 h.
3) MTT working solution was discarded, and 150 μL DMSO was added per well (note: to away from light). The plate was shaken on a horizontal shaker at 170 rpm for 10 min, and then the absorbance at 490 nm was detected by microplate reader.

B16 melanoma cells = experiment: Artificial metastasis model of B16 mice melanoma (Example 6); type: in vivo, C57BL/6 mouse
Experimental: 3) An metastasis model of B16 mouse melanoma is constructed by direct injection of B16 cells into tail vein in C57BL/6 mouse, and the ability of a drug for inhibiting tumor metastasis is determined by counting the number of the metastatic tumors on lung. Such a model mimics the metastatic process of cancer cells from the circulatory system to the target organ, which is more similar with the metastatic way of tumor cells in the bodies of patients with advanced cancer.
The ability of (S)2-(4′-methyl-3′-nitrobenzoylamino)-3-phenylpropionic acid for inhibiting tumor metastasis in vivo was tested by artificial metastasis model of B16 mice melanoma.
1) Mice grouping: C57BL/6 of SPF grade, 5 weeks old, 18˜22 g, 8 mice for each group, half male and half female;
2) The mother liquid of (S)2-(4′-methyl-3′-nitrobenzoylamino)-3-phenylpropionic acid for the dosage form administrated by intravenous injection was diluted to 0.8 mg/mL, 0.2 mg/mL, 0.05 mg/mL by adding sterilized water. […]
3) B16 cells in logarithmic growth phase were digested with 0.05% typsine for 1 min, and after centrifugation at 1000 rpm for 5 min, the supernatant was discarded and the cells were resuspended and counted. […]
5) After the completion of the experiment, the mice were sacrificed and the lungs were taken, the number and size of melanomas on the lungs was counted, and the weight of the lungs were weighed;

MDA-MB-231 cells [4] = experiment: MTT assay, proliferation of MDA-MB-231 (Example 11); type: cell-based; conditions: Homo sapiens, 48 h
Experimental: The half inhibitory concentration of (S)2-(4′-methyl-3′-nitrobenzoylamino)-3-phenylpropionic acid for MDA-MB-231 cells was tested by MTT assay.
2) 5 mg/mL MTT solution was prepared with sterilized PBS, filtered with 0.22 um film, and then diluted with medium to 1 mg/mL. The medium in the 96-well plate was discarded, and 100 μL 1 mg/mL MTT working solution was add, followed by continuous culturing for 5 h.
3) MTT working solution was discarded, and 150 μL DMSO was added to each well (note: to away from light), and then the plate was shaken on the horizontal shaker at 170 rpm for 10 min, followed by detecting the absorbance at 490 nm with microplate reader.

Cc1ccc(C(=O)N[C@@H](Cc2ccccc2)C(=O)O)cc1[N+](=O)[O-] [(S)2-(4′-methyl-3′-nitrobenzoylamino)-3-phenylpropionic acid]
LD50 at 14 days ([1]; read-out: LD50): 269 mg/kg
LD50 at 14 days ([1]; read-out: LD50 95% confidence limits): 249 to 291 mg/kg
invaded cell number compared to the negative control ([2]; 1, 2, 4 μmol/L, 24 h, P<0.01): significantly less than the negative control
invaded cell number compared to the positive control (1 μmol/L 4-methyl-3-nitrobenzoic acid) ([2]; 2, 4 μmol/L, P>0.05): no significant difference
solubility in organic solvents (Solubility): highly soluble
synergistic effect with Paclitaxel (MDA-MB-231 cells [3]): strong synergistic effect
tumor numbers on the lungs and lung weights compared with the negative control (B16 melanoma cells; 8, 2, 0.5 mg/kg tail vein, twice a day, 21 days, P<0.01): very significant difference
inhibition of metastasis of B16 mouse melanoma cell in C57BL/6 mouse (B16 melanoma cells; tail vein administration of 0.5 mg/kg): significantly inhibit
IC50 (MDA-MB-231 cells [4]): 2450 µM

Source: patent US10512627B2, “Anti-tumor compound and the medical use thereof” (Tianjin Medical University Cancer Institute and Hospital, priority 2014, dated 2019)
